# Results published in patent US8247444B2, “Anti-tumor effect of dimeric phthalide compound” (priority 2007, dated 2012).
# How the values were obtained:
# MCF-7/Adr = experiment: Growth inhibition of sensitive and drug-resistant cell lines (IC50), MCF-7/Adr; format: cell-based; details: Homo sapiens, NCI/ADR-RES; MCF-7/Adr drug-resistant cells
# From the text: (§1) HL-60/ADR, MCF-7/ADR, K562/ADR, Bel-7402/5-FU, KBV200, SMMC-7721/Adr were respectively chemotherapeutics Adriamycin (ADR), 5-Fluorouracil (5-FU) or vincristine (VCR) drug-resistant sub-stains of HL-60, MCF-7, K562, Bel-7402, KB, SMMC-7721 cells (all from Chinese Academy of Medical Sciences). NB4-R2 was all trans-retinoic acid (ATRA) drug-resistant sub-stain (from Pathophysiology Research Department of Shanghai JiaoTong University). The main drug-resistance mechanism of K562/ADR was high expression of P-glycoprotein (P-gp), along with increased expression of Bcl-2. In addition to high expression of P-gp, the drug-resistance mechanism of MCF-7/ADR also related to the high expression of Breast Cancer Resistant Protein (BCRP). The main drug-resistance mechanism of HL-60/ADR was high expression of Multidrug Resistance Protein 1 (MRP1), along with high expression of Bcl-2, Bcl-xL. […] The main drug-resistance mechanism of KBV200 was high expression of P-gp and its increased activity. The drug-resistance mechanism of NB4-R2 on ATRA was mutation in the RAR gene locus.
# (§2) The human lung cancer cell H1299 and H446, glioma cell U251 and U87MG, and human hepatic cellular cancer Bel-7402 cell in logarithmic growth phase were digested with pancreatic enzyme, and then suspended into DMEM or RPMI1640 containing 10% fetal bovine serum. The leukemic cells Kasumi-1 need no digestion, and were suspended into RPMI1640 containing 10% fetal bovine serum directly after centrifugalization. The cell density was adjusted to 1×10^4 cells/ml through cell counting, and the cell suspensions were seeded into a 96-well plate respectively, 100 μl/well, totally 6 groups of cells. The adherent cells were cultured overnight, the suspended cells were added different concentration gradients of dimeric phthalide compounds (S1-S6) directly, n=6 for each concentration of a single agent. The final volume was 200 ul, and the balance was supplemented with the culture medium. The plate was then incubated for 68 hours in 37° C., saturated humidity, 5% CO2 cell incubator. The medium was aspirated and 72 μl/well fresh culture medium was added. 8 μl […] (CCK-8) was added into each well and cultured for 2 hours. The absorbance was measured at 450 nm. The results were calculated as the 50% inhibiting drug concentration, i.e. IC50, using Sigmoidal simulation function by software Origin 7.0.
# (§3) The cancer cells (various cell lines as shown in table 1 or FIG. 3) were seeded 1×10^3 cells per well into a 96-well plate. The suspended cells were added different concentration of dimeric phthalide compounds (S1-S6) directly, and the adherent cells were cultured overnight and added different concentration of dimeric phthalide compounds (S1-S6). The different concentration of dimeric phthalide compounds were divided into 10 groups: 0, 0.1, 0.5, 1, 5, 10, 20, 40, 80, 160 μg/ml, n=6 for each concentration.
# (§4) According to the method described in Example 2, […] was detected and IC50 was calculated. The experiment was repeated for 3 times.
# (§5) The growth inhibition effects of dimers of S1-S6 on its sensitive cell lines as well as the drug-resistant sub-strains (IC50 (μg/ml)) were shown in table 1 and FIG. 3.
# SMMC-7721 = experiment: Growth inhibition of sensitive and drug-resistant cell lines (IC50), SMMC-7721; format: cell-based; details: Homo sapiens; SMMC-7721 cells
# Description: (§6) In the following Examples, the cell lines used were H1299, H446 (human lung cancer cell line), KB (human oral cavity carcinoma cell line), NB4, HL-60 (human leukemic cell line), U251 ? U87MG (human glioblastoma cell line), MCF-7 (human breast carcinoma cell line), Bel-7402 and SMMC7721 (human hepatic cellular cancer cell line), SW620 (human colon carcinoma cell line), HDF (human dermis fibroblast), HUVEC (human umbilical vein endothelial cell line) and Kasumi-1 (human acute myeloid leukaemia cell line), all from American Type Culture Collection (ATCC).
# as §2, §3, §4, §5
# KBv200 = experiment: Growth inhibition of sensitive and drug-resistant cell lines (IC50), KBv200; format: cell-based; details: Homo sapiens; KBv200 drug-resistant cells
# From the text: as §1, §2, §3, §4, §5
# HUVEC = experiment: Vascular endothelial cell inhibition assay (CCK-8), HUVEC; format: cell-based; details: Homo sapiens, 72 h
# Description: (§7) 2×10^3 cells were seeded into a 96-well plate and cultured for 24 h. S1-S6 of different concentrations (0, 0.01, 0.1, 0.5, 1, 2.5, 5, 10, 20, 40, 80, 160 μg/ml, respectively) were added and incubated for 72 h, n=6 for each concentration. The inhibition of cell proliferation was detected by CCK-8 assay, the results were calculated as IC50, as describe in Example 3.
# Bel-7402 [1] = experiment: Growth inhibition of sensitive and drug-resistant cell lines (IC50), Bel-7402; format: cell-based; details: Homo sapiens; Bel-7402 cells, Table 1
# Description: as §6, §2, §3, §4, §5
# K562 = experiment: Growth inhibition of sensitive and drug-resistant cell lines (IC50), K562; format: cell-based; details: Homo sapiens; K562 cells
# Description: as §2, §3, §4, §5
# MCF-7 = experiment: Growth inhibition of sensitive and drug-resistant cell lines (IC50), MCF-7; format: cell-based; details: Homo sapiens, MCF7; MCF-7 cells
# Description: as §6, §2, §3, §4, §5
# [2] = tested on: secretion of VEGF in H1299 cell; experiment: VEGF in supernatant of tumor cell H1299 culture (VEGF-ELISA); format: cell-based, human; details: H1299, compound 5 μg/ml, 24 h; for inhibition at 5 µg/mL: Homo sapiens, NCI-H1299, read-out: Inhibition rate of VEGF secretion
# Description: Assay of vascular endothelial cell growth factor (VEGF) in supernatant of tumor cell H1299 culture. The cell was seeded into a 24-well plate (n=3 for each sample). H1299 cell was treated with S1-S6 respectively and cultured for 24 h. The culture supernatants from each group were collected and operated according to the instruction of VEGF-ELISA kit (JIN MEI Corporation). The samples were added, incubated, washed and detected at 450 nm for OD values of each sample. The standard curve was obtained by using different dose of VEGF standards and the secretory volume of VEGF in the supernatant was calculated.
# Bel-7402 [3] = experiment: Vascular endothelial cell inhibition assay (CCK-8), Bel-7402; format: cell-based; details: Homo sapiens, 72 h, CCK-8, Table 2
# Description: as §7
# HDF = experiment: Vascular endothelial cell inhibition assay (CCK-8), HDF; format: cell-based; details: Homo sapiens, 72 h
# Description: as §7
# KB [4] = experiment: Growth inhibition of sensitive and drug-resistant cell lines (IC50), KB; format: cell-based; details: Homo sapiens; KB cells, Table 1
# Description: as §6, §2, §3, §4, §5
# Bel-7402/5-Fu = experiment: Growth inhibition of sensitive and drug-resistant cell lines (IC50), Bel-7402/5-Fu; format: cell-based; details: Homo sapiens, Bel7402/5-FU; Bel-7402/5-Fu drug-resistant cells
# From the text: as §1, §2, §3, §4, §5
# K562/Adr = experiment: Growth inhibition of sensitive and drug-resistant cell lines (IC50), K562/Adr; format: cell-based; details: Homo sapiens; K562/Adr drug-resistant cells
# From the text: as §1, §2, §3, §4, §5
# KB [5] = experiment: Vascular endothelial cell inhibition assay (CCK-8), KB; format: cell-based; details: Homo sapiens, 72 h, CCK-8, Table 2
# Description: as §7
# SMMC-7721/Adr = experiment: Growth inhibition of sensitive and drug-resistant cell lines (IC50), SMMC-7721/Adr; format: cell-based; details: Homo sapiens; SMMC-7721/Adr drug-resistant cells
# From the text: as §1, §2, §3, §4, §5
# [6] = tested on: U87MG, H1299 and HL-60 heterograft tumors; experiment: Inhibition of the growth of nude mouse heterograft tumors; format: in vivo, Balb/c male nude mice; details: FIG. 9
# Description: Experimental grouping: Balb/c male nude mice were used, each weighted 18-22 g, and three assays were performed. The mice were seeded with U87MG, H1299 and HL-60 respectively. The animals were divided into three groups for each experiment, one as control, one was administered with the dimeric phthalide compounds, and one was administered with monomers of phthalide compound, 6 animals for each group.
# For the group which was administered with monomers of phthalide compound, we used n-butylidenephthalide (BP) (Sigma) as active ingredient for tumor suppression, the compound had the structure as follows:
# Experimental Process The H1299, HL-60 or U87MG cells growing in logarithmic phase were used. […] When the tumors had gown into 0.1-0.5 cm^3 (about 7-10 days), the animals were intraperitoneal injected with the dimeric phthalide compound S4 (25 mg/kg), S6 (30 mg/kg), S1 (32 mg/kg), each 200 μl; for the group of monomers of phthalide compound, the mice were intraperitoneal injected with n-butylidenephthalide (250 mg/kg); the control group was administered with equal volume of vehicle. The animals were sacrificed after 4 weeks, and the subcutaneous tumors were separated. Photographs were taken (FIG. 9A) and the tumors were weighted (FIG. 9B).
SMILES,IC50 (MCF-7/Adr) [µg/mL],IC50 (SMMC-7721) [µg/mL],IC50 (KBv200) [µg/mL],IC50 (HUVEC) [µg/mL],IC50 (Bel-7402 [1]) [µg/mL],IC50 (K562) [µg/mL],IC50 (MCF-7) [µg/mL],Supernatant VEGF [2] [ng/ml/10^6 cells],inhibition at 5 µg/mL [2] [%],IC50 (Bel-7402 [3]) [µg/mL],IC50 (HDF) [µg/mL],IC50 (KB [4]) [µg/mL],IC50 (Bel-7402/5-Fu) [µg/mL],IC50 (K562/Adr) [µg/mL],IC50 (KB [5]) [µg/mL],IC50 (SMMC-7721/Adr) [µg/mL],dose needed to reach similar effects compared with the dimeric phthalide compound [6] [folds],"tumor inhibition effect ([6]; intraperitoneal, S4 25 mg/kg, S6 30 mg/kg, S1 32 mg/kg, BP 250 mg/kg, 4 weeks)"
"CCC/C=C1\OC(=O)C2=C1CCC1[C@H]2C23C=CCC[C@@H]2C1(C(=O)CCC)OC3=O (single isomer, unassigned) [S3]",34 ± 3.06,25.4 ± 2,20.4 ± 2.6,5.99,28.1 ± 3.96,17.4 ± 2.06,32.1 ± 3.21,268.7 ± 36.13,28,44.3,98.7,19 ± 1.91,29.3 ± 2.3,19.2 ± 1.71,18.9,26.7 ± 2.6,–,–
"CCC/C=C1\OC(=O)c2ccccc21 [BP, n-butylidenephthalide, reference compound]",–,–,–,–,–,–,–,–,–,–,–,–,–,–,–,–,≥ 10,some inhibition effects
CCC/C=C1\OC(=O)C2=C1CCC1C2C2(OC(=O)c3ccccc32)[C@@H]1CCC (stereo partly shown) [S2],29.4 ± 2.8,37.9 ± 2,16.4 ± 1.98,4.76,27.9 ± 2.54,18.4 ± 1.02,25.6 ± 2.01,245.71 ± 34.27,34.2,25.6,83.2,15.8 ± 1.25,29.7 ± 1.99,20.4 ± 1.53,37.8,38.3 ± 1.87,–,–
